Reference: patent US10913750B2, “Tubulin-binding compounds, compositions and uses related thereto” (The Regents of the University of California, priority 2015, dated 2021)

Tests used:
HeLa cells [1] = assay: Microtubule stability by immunofluorescence microscopy; type: cell-based; conditions: increasing concentrations, anti-α-tubulin staining
Method: Next, microtubule stability was analyzed in HeLa cells treated with increasing concentrations of each of these three compounds by fixing the cells with 4% paraformaldehyde, staining them with Hoechst 33342 (DNA dye) to visualize their DNA and anti-α-tubulin antibodies to visualize microtubule structures and then imaging them by immunofluorescence microscopy.

tubulin = molecular target: T1, tubulin (Sus scrofa, UniProt P02554); assay: In vitro tubulin polymerization assay (HTS-tubulin polymerization kit, Cytoskeleton); type: biochemical; conditions: 3 μM compound, fluorescence, 70 minutes at 37° C.
T1 construct: purchased Cytoskeleton Inc. BK011P
T1 sequence (P02554 whole entry): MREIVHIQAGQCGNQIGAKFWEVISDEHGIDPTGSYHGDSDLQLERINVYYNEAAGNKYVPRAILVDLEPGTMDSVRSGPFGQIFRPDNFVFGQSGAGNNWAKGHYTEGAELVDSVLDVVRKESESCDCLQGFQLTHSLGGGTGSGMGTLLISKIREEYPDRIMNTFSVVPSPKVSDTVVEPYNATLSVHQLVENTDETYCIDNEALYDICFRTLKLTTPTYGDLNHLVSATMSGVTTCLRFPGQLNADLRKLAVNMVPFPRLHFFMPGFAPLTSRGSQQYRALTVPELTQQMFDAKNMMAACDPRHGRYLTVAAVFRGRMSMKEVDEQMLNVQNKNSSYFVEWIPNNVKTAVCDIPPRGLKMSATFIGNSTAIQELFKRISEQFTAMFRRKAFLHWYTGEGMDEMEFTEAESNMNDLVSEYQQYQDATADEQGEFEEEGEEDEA
T1 sequence (P02550 whole entry partner): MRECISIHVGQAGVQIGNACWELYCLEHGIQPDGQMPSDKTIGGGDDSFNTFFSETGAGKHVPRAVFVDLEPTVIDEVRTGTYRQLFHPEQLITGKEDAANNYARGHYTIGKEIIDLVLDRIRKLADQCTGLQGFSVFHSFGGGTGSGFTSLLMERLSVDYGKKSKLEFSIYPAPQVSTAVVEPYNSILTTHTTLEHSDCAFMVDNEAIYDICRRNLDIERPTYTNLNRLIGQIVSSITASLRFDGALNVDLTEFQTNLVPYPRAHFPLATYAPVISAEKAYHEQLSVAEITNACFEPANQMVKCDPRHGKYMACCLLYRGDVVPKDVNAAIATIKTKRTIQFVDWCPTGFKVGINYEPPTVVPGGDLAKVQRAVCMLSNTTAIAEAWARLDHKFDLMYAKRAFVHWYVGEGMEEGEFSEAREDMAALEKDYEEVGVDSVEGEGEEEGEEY
Method: 1.5 ul of 10× strength compound, 20 μl of tubulin solution and Triton X-100 at a final concentration of 0.01% were added to each well in a 384 well plate. The reactions were assembled on ice to prevent tubulin pre-polymerization. For kinetic measurements, microtubule polymerization was monitored by reading the fluorescence at 420 nm (due to the incorporation of a fluorescent reporter into microtubules as polymerization occurs) every ten seconds using a Tecan M1000 microplate reader (FIG. 6B). […] Fluorescence increased as polymerization occurred, due to the incorporation of 4′,6-diamidino-2-phenylindole. Fluorescence was monitored every minute for 70 minutes at 37° C.
Tubulin polymerization reactions were carried out according to the manufacturer (Cytoskeleton, BK011P) in the presence of 3 μM colchicine, MI-181, taxol or DMSO. Polymerization was monitored with a Tecan M1000 micro-plate reader at 420 nm for 70 minutes at 37° C. The results are depicted in FIG. 11.

[2] = system: patient-derived glioblastoma cells (HK-309); assay: CellTiter-Glo cell viability, patient-derived glioblastoma cells; type: cell-based; conditions: HK-309, 72 hours
Method: (§1) The cell viability IC50 of each compound was determined using Promega CellTiter-Glo Luminescent Cell Viability Assay kit by measuring the total ATP levels to quantify the number of metabolically active cells upon drug treatment as described in Crouch et al., J Immunol Methods 1993, 160, (1), 81-8. Briefly, the compounds were suspended in DMSO at 10 mM and diluted in 384 plates (20 μl/well in DMSO) in triplicate by a 14-point titration (12 nM to 100 μM). 50 μl of HeLa cells or patient derived glioblastoma cells (HK-309) (2000 cells/well) were then treated with the prepared dilutions of the drugs (0.5 μl) and incubated at 37° C. and 5% CO2. 72 hours later 50 μl of CellTiter-Glo reagent was added to each well followed by a 2 minutes shaking and a 10-minute incubation to lyse the cells. The relative luminescent intensity units (RLU) of each well was measured using a Tecan M1000 microplate reader (Tecan Group Ltd.) with its green filter and 1 second integration time.
(§2) Cells used in Example 2 and other examples disclosed herein were cultured as follows: Adherent HeLa cells and patient derived glioblastoma cells were grown with 5% CO2 at 37° C. in F12:DMEM 50:50 medium (Invitrogen) containing 10% FBS and 1% penicillin/streptomycin. To obtain HeLa cells synchronized in mitosis, cycling cells were treated with 2 mM thymidine (Sigma-Aldrich) for eighteen hours, washed three times with PBS, and released into fresh media until they entered mitosis eight hours post-release. Patient-derived glioblastoma cells (HK-309) were collected and grown with approval from the UCLA Institutional Review Board. HK-309 was derived from a recurrent glioblastoma taken from a person. The cells were initially propagated as cancer stem cell-containing spheres in serum-free medium containing basic fibroblast growth factor and epidermal growth factor (Preprotech) as described previously by Visnyei et al., Mol Cancer Ther 2011, 10, (10), 1818-28.

HeLa cells [3] = assay: CellTiter-Glo cell viability, HeLa cells; type: cell-based; conditions: Homo sapiens; HeLa cells, 72 hours, CellTiter-Glo
Method: as §1, §2
For mitotic arrest IC50s, cells were treated with a twenty-point-2-fold-titration (190 pM to 10 μM) of each compound tested for 20 hours. For cell viability IC50s, cells were treated with a fourteen-point-2-fold-titration (12.2 nM to 100 μM). Mitotic arrest IC50 was determined by measuring the percent G2/M arrest using the Vybrant DyeCycle Green (Invitrogen) assay described above. Cell viability IC50 was determined using the CellTiter-Glo Assay (Promega), which measures total ATP levels. Plates were read with a Tecan M1000 micro-plate reader at 540 nm. The CDD software was used for generating IC50 and IC90 values.

HeLa cells [4] = assay: Cell cycle analysis / cell division; type: cell-based; conditions: 20 hours
Method: For cell cycle analysis, HeLa cells were plated in 384 well plates (1500 cells/well) and treated with 10 μM drugs for 20 hours. Cells were then fixed and stained with 5 μM Vybrant DyeCycle Green (Invitrogen) for 1 hour at 37° C. and plates were scanned with an Acumen eX3 (TTP Labtech) fluorescence microplate cytometer using its 488 nm laser and a cell cycle histogram profile was generated for each drug treatment using the CDD (Collaborative Drug Discovery) software. […] Additionally, HeLa cells were treated with increasing concentrations of colchicine and compound 10 for 20 hours and the drug response dose curves were used to measure the mitotic arrest IC50 for each treatment.
Briefly, HeLa cells were treated with increasing concentrations of 10, 10a, and 10b for 20 hours and the drug response dose curves were used to measure the mitotic arrest IC50 for each treatment. Also, the percentage of cells undergoing normal cell division was quantified for DMSO, colchicine, 10b, or taxol-treated cells. Data represent the average±SD of 3 independent experiments, with 20 cells counted for each. Asterisks denotes p-value<0.0001.

β-tubulin = assay: Crystal structure of T2R-TTL tubulin complex soaked with ligand; type: binding, bovine; conditions: T2R-TTL crystal soaked 24 hours with 1 mM compound
Method: The crystal structure of tubulin bound to two ligands described here was obtained using an established system for tubulin crystal growth. […] Methods in Cell Biology 2010, 95:373-390.) Briefly, bovine αβ-tubulin, human RB3 or rat STMN4 stathmin-like domain, and chicken tubulin tyrosine ligase (TTL) reconstitute to form a stathmin-bound αβ-tubulin (T2R) T2R-TTL complex, which readily crystallizes. […]
The final resolution cutoffs described here were determined optimally from a subset of diffraction images that took into consideration the signal-to-noise ratio for reflection intensities and the random half-data set correlation coefficient, CC1/2 (Karplus P. A., Diederichs K. Linking crystallographic model and data quality. Science 2012, (New York, N.Y.) 336:1030-1033.) […]

IC50 [2] | IC50 (HeLa cells [3]) | binding to tubulin in crystal structure (β-tubulin) | Compound | microtubule stability in treated cells (HeLa cells [1]) | inhibition of microtubule (tubulin) polymerization in vitro (tubulin) | effect on cell division and cell death (HeLa cells [4])
0.352 µM | 0.552 µM |  | O=c1[nH]c(/C=C/c2ccccc2)nc2sc3c(c12)CCCC3 [Compound 10, (E)-2-styryl-5,6,7,8-tetrahydrobenzo[4,5]thieno[2,3-d]pyrimidin-4(3H)-one] | destabilized in a drug dose-dependent manner | potent inhibitors of microtubule polymerization similar to colchicine | inhibit cell division and trigger apoptotic cell death
 |  | bound to β-tubulin | CCOc1ccc(C2=Nn3c(nnc3-c3ccccc3OC)SC2)cc1 [Compound C2, reference compound] |  |  | 
